How the values were obtained:
Type in all cases: biochemical
[1] = molecular target: Jak2 (a.a. 828-1132) (Homo sapiens (Human), UniProt O60674); test: In vitro JAK kinase assay (HTRF, phosphorylation of a biotinylated peptide), JAK2; conditions: measured at 1 mM ATP
Procedure, shortened: (§1)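 Phosphorylation of a biotinylated peptide by purified His-tagged JAK catalytic domains (insect-cell baculovirus expression) ran 1 hr at room temperature. After stopping with EDTA, Eu-Py20 and SA-APC were bound for 40 minutes and HTRF measured.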

[2] = molecular target: human JAK1 (a.a. 837-1142); test: In vitro JAK kinase assay (HTRF, phosphorylation of a biotinylated peptide), JAK1; conditions: ratio of JAK2 IC50 to JAK1 IC50, measured at 1 mM ATP
Procedure, shortened: as §1

[3] = molecular target: human JAK1 (a.a. 837-1142) (Homo sapiens, UniProt P23458); test: as above; conditions: measured at 1 mM ATP
Procedure, shortened: as §1

Sequence of Jak2 (a.a. 828-1132) (O60674 828-1132): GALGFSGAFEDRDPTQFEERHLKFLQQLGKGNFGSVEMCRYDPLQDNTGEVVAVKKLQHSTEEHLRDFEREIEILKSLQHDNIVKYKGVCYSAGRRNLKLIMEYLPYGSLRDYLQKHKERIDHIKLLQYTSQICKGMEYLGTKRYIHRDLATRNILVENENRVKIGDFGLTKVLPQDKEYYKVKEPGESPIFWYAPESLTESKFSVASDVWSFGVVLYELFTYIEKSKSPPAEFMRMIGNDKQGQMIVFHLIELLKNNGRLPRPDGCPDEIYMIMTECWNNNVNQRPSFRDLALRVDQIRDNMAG

SMILES	IC50 [1] [µM]	IC50 Ratio JAK2/JAK1 [2]	IC50 [3] [µM]
N#CCC1(n2cc(-c3ncnc4[nH]ccc34)cn2)CN(C2CCN(C(=O)C3CCC(C(F)(F)F)CC3)CC2)C1 (stereo not drawn) [Example 98, {3-[4-(7H-pyrrolo[2,3-d]pyrimidin-4-yl)-1H-pyrazol-1-yl]-1-(1-{[4-(trifluoromethyl)cyclohexyl]carbonyl}piperidin-4-yl)azetidin-3-yl]acetonitrile]	0.05 to 0.1	3.7	0.005 to 0.02
N#CCC1(n2cc(-c3ncnc4[nH]ccc34)cn2)CN(C2CCN(C(=O)C3CCC(F)(F)CC3)CC2)C1 [Example 100, {1-{1-[(4,4-difluorocyclohexyl)carbonyl]piperidin-4-yl}-3-[4-(7H-pyrrolo[2,3-d]pyrimidin-4-yl)-1H-pyrazol-1-yl]azetidin-3-yl}acetonitrile]	0.05 to 0.1	6.6	0.005 to 0.02
N#CCC1(n2cc(-c3ncnc4[nH]ccc34)cn2)CN(C2CCN(C(=O)C3CCCC3)CC2)C1 [Example 101, {1-[1-(cyclopentylcarbonyl)piperidin-4-yl]-3-[4-(7H-pyrrolo[2,3-d]pyrimidin-4-yl)-1H-pyrazol-1-yl]azetidin-3-yl}acetonitrile]	> 0.1	8.3	0.005 to 0.02
N#CCC1(n2cc(-c3ncnc4[nH]ccc34)cn2)CN(C2CCN(C(=O)C3CCC(c4ccc(Cl)cc4)CC3)CC2)C1 (stereo not drawn) [Example 105, {1-(1-{[4-(4-chlorophenyl)cyclohexyl]carbonyl}piperidin-4-yl)-3-[4-(7H-pyrrolo[2,3-d]pyrimidin-4-yl)-1H-pyrazol-1-yl]azetidin-3-yl}acetonitrile]	> 0.1	7.2	0.005 to 0.02
N#CCC1(n2cc(-c3ncnc4[nH]ccc34)cn2)CN(C2CCN(C(=O)Cc3c(Cl)cccc3Cl)CC2)C1 [Example 112, {1-{1-[(2,6-dichlorophenyl)acetyl]piperidin-4-yl}-3-[4-(7H-pyrrolo[2,3-d]pyrimidin-4-yl)-1H-pyrazol-1-yl]azetidin-3-yl}acetonitrile]	0.05 to 0.1	8.2	0.005 to 0.02
Cc1cc(C)c(CC(=O)N2CCC(N3CC(CC#N)(n4cc(-c5ncnc6[nH]ccc56)cn4)C3)CC2)c(C)c1 [Example 113, {1-[1-(mesitylacetyl)piperidin-4-yl]-3-[4-(7H-pyrrolo[2,3-d]pyrimidin-4-yl)-1H-pyrazol-1-yl]azetidin-3-yl}acetonitrile]	0.05 to 0.1	4.2	0.02 to 0.03
N#CCC1(n2cc(-c3ncnc4[nH]ccc34)cn2)CN(C2CCN(C(=O)c3ccc(-c4ccc(C#N)c(F)c4)c(F)c3)CC2)C1 [Example 119, 4′-[(4-{3-(cyanomethyl)-3-[4-(7H-pyrrolo[2,3-d]pyrimidin-4-yl)-1H-pyrazol-1-yl]azetidin-1-yl}piperidin-1-yl)carbonyl]-2′,3-difluorobiphenyl-4-carbonitrile]	0.01 to 0.05	14.0	≤ 0.005

Now from value to compound:

IC50 [1] [µM]	IC50 Ratio JAK2/JAK1 [2]	IC50 [3] [µM]	SMILES
0.01 to 0.05	2.2	0.005 to 0.02	N#CCC1(n2cc(-c3ncnc4[nH]ccc34)cn2)CN(C2CCN(C(=O)C3CCc4ccccc4C3)CC2)C1 (stereo not drawn) [Example 97, {3-[4-(7H-pyrrolo[2,3-d]pyrimidin-4-yl)-1H-pyrazol-1-yl]-1-[1-(1,2,3,4-tetrahydronaphthalen-2-ylcarbonyl)piperidin-4-yl]azetidin-3-yl}acetonitrile]
0.01 to 0.05	1.1	0.02 to 0.03	N#CCC1(n2cc(-c3ncnc4[nH]ccc34)cn2)CN(C2CCN(C(=O)Cc3ccccc3)CC2)C1 [Example 109, {1-[1-(phenylacetyl)piperidin-4-yl]-3-[4-(7H-pyrrolo[2,3-d]pyrimidin-4-yl)-1H-pyrazol-1-yl]azetidin-3-yl}acetonitrile]
0.01 to 0.05	1.6	0.005 to 0.02	N#CCC1(n2cc(-c3ncnc4[nH]ccc34)cn2)CN(C2CCN(C(=O)C3(c4ccccc4)CC3)CC2)C1 [Example 110, {1-{1-[(1-phenylcyclopropyl)carbonyl]piperidin-4-yl}-3-[4-(7H-pyrrolo[2,3-d]pyrimidin-4-yl)-1H-pyrazol-1-yl]azetidin-3-yl}acetonitrile]
0.01 to 0.05	2.6	0.005 to 0.02	N#CCC1(n2cc(-c3ncnc4[nH]ccc34)cn2)CN(C2CCN(C(=O)C3(c4ccc(Cl)cc4)CC3)CC2)C1 [Example 111, {1-(1-{[1-(4-chlorophenyl)cyclopropyl]carbonyl}piperidin-4-yl)-3-[4-(7H-pyrrolo[2,3-d]pyrimidin-4-yl)-1H-pyrazol-1-yl]azetidin-3-yl}acetonitrile]
0.01 to 0.05	1.5	0.005 to 0.02	N#CCC1(n2cc(-c3ncnc4[nH]ccc34)cn2)CN(C2CCN(C(=O)c3ccc(-c4ccccc4)cc3)CC2)C1 [Example 114, {1-[1-(biphenyl-4-ylcarbonyl)piperidin-4-yl]-3-[4-(7H-pyrrolo[2,3-d]pyrimidin-4-yl)-1H-pyrazol-1-yl]azetidin-3-yl}acetonitrile]
0.01 to 0.05	15.7	≤ 0.005	N#CCC1(n2cc(-c3ncnc4[nH]ccc34)cn2)CN(C2CCN(C(=O)c3ccc(-c4ccc5cnccc5c4)c(F)c3)CC2)C1 [Example 115, {1-[1-(3-fluoro-4-isoquinolin-6-ylbenzoyl)piperidin-4-yl]-3-[4-(7H-pyrrolo[2,3-d]pyrimidin-4-yl)-1H-pyrazol-1-yl]azetidin-3-yl}acetonitrile]
0.01 to 0.05	10.6	≤ 0.005	N#CCC1(n2cc(-c3ncnc4[nH]ccc34)cn2)CN(C2CCN(C(=O)c3c(F)cc(-c4cccnc4)cc3F)CC2)C1 [Example 116, {1-[1-(2,6-difluoro-4-pyridin-3-ylbenzoyl)piperidin-4-yl]-3-[4-(7H-pyrrolo[2,3-d]pyrimidin-4-yl)-1H-pyrazol-1-yl]azetidin-3-yl}acetonitrile]
0.01 to 0.05	10.0	≤ 0.005	N#CCC1(n2cc(-c3ncnc4[nH]ccc34)cn2)CN(C2CCN(C(=O)c3ccc(-c4ccncc4)c(F)c3)CC2)C1 [Example 117, {1-[1-(3-fluoro-4-pyridin-4-ylbenzoyl)piperidin-4-yl]-3-[4-(7H-pyrrolo[2,3-d]pyrimidin-4-yl)-1H-pyrazol-1-yl]azetidin-3-yl}acetonitrile]
0.01 to 0.05	21.5	≤ 0.005	N#CCC1(n2cc(-c3ncnc4[nH]ccc34)cn2)CN(C2CCN(C(=O)c3ccc(-c4ccc(C#N)cc4)c(F)c3)CC2)C1 [Example 118, 4′-[(4-{3-(cyanomethyl)-3-[4-(7H-pyrrolo[2,3-d]pyrimidin-4-yl)-1H-pyrazol-1-yl]azetidin-1-yl}piperidin-1-yl)carbonyl]-2′-fluorobiphenyl-4-carbonitrile]
≤ 0.01	3.8	≤ 0.005	N#CCC1(n2cc(-c3ncnc4[nH]ccc34)cn2)CN(C2CCN(C(=O)c3ccc(-c4cccnc4)c(F)c3)CC2)C1 [Example 123, {1-[1-(3-fluoro-4-pyridin-3-ylbenzoyl)piperidin-4-yl]-3-[4-(7H-pyrrolo[2,3-d]pyrimidin-4-yl)-1H-pyrazol-1-yl]azetidin-3-yl}acetonitrile]

Reference: patent US9999619B2, “Piperidin-4-yl azetidine derivatives as JAK1 inhibitors” (Incyte Corporation, priority 2010, dated 2018)
